The values that follow are results of earlier work, collected in patent US6495170B1, “Method of increasing the presence of glutathione in cells” (N. V. Nutricia, priority 2000, dated 2002).

For data set [1] the following is noted: ingested in large amounts.
Another data set concerns γ-GCS. The note with it: mediated by increased expression of γ-GCS mRNA and enzyme activity via AP-1.
For data set [2] the following is noted: 50 mg/kg p.o., mice treated with CCl4.
For data set [3] the following is noted: 200 μg/day supplement for 2 months.
For data set [4] the following is noted: mice, ethanol-induced liver peroxidation, pretreatment 200 mg/kg.
Another data set has as its system hepatic glutathione. The following applies: induced by ethyl alcohol and paracetamol, rats.
The subject of data set [5] is glutathione-S-transferase.
Data set [6] deals with hepatoblastoma Hep G2 cells.

Take `CC(=O)Nc1ccc(O)cc1` [Acetaminophen, acetaminophen]: in data set [1], the hepatotoxicity result is “severe hepatic necrosis”.
With `COc1cc(C(C)=O)ccc1O` [Apocynin], the “intracellular GSH synthesis” value with γ-GCS is “enhances”.
With `O=NN(CCCl)C(=O)NCCCl` [BCNU], in the data set on mitochondrial GSH (CCl4-intoxicated mice), the GSH reductase activity entry is recorded as “inhibited” and the “effect on the protective activity of schisandrin B” value was “did not affect”.
Turning to `COc1cc(C(=O)O[C@H]2[C@@H]3C=CO[C@@H](O[C@@H]4O[C@H](CO)[C@@H](O)[C@H](O)[C@H]4O)[C@@H]3[C@@]3(CO)O[C@@H]23)ccc1O` [Picroside II], in data set [2], the hepatoprotective activity result is given as “showed a hepatoprotective activity”.
For `[Se]` [Selenium], in data set [3], the peroxidative parameters result is “no effect”; the “plasma selenium levels and glutathione peroxidase” value was “significantly improved”.
With `COc1cc2c(c(OC)c1OC)-c1c(cc3c(c1OC)OCO3)CC(C)C(C)C2` (stereo not shown) [schisandrin B], in data set [4], the GSH-peroxidase activity result was “unaffected”; the “dismutase and catalase activity” value is reported as “increased”. In the data set with mitochondrial GSH (3 mmol/kg/day p.o.), the GSH/GSSG ratio entry was “elevating”, the GSSG level entry was “decreased”, the “mitochondrial GSH level” value was “increased” and the “mitochondrial GSH reductase activity” value is “increased”.
Regarding `COc1cc2c(c(O)c1OC)-c1c(cc(OC)c(OC)c1OC)C[C@@H](C)[C@@H](C)C2` [schisanhenol], in data set [4], the GSH-peroxidase activity result was “unaffected”; the “dismutase and catalase activity” value is “increased”.
For the compound `COc1cc(C2Oc3cc([C@H]4Oc5cc(O)cc(O)c5C(=O)[C@@H]4O)ccc3OC2CO)ccc1O` (stereo partly shown) [silybin], the hepatic glutathione depletion result with hepatic glutathione is on record as “protect”. In the data set on isolated rat hepatocytes, the “GSH depletion by buthionine sulfoximide” value is “does not affect” and the “GSH depletion induced by acetaminophen” value is given as “reduces”. The “superoxide and hydrogen peroxide production” value in the data set with human neutrophils is reported as “inhibitory effects”. The “activity of superoxide dismutase and glutathione peroxidase” value in the data set with human erythrocytes is listed as “increased”. Also, the “inhibition of glutathione-S-transferase” value in data set [5] is recorded as “potent, non-toxic, inhibitor”.
As to `[Zn]` [zinc, Zinc], the “plasma zinc bound to RBP” value is under 2%, the “plasma zinc bound to albumin” value is given as 80-85% and the “plasma zinc bound to alpha2-macroglobulin” value was 15%.
Regarding silymarin, the “acetaminophen-induced GSH depletion and cytotoxicity” value in data set [6] is on record as “protects”.
